Reference: patent US20080181971A1, “Combination Cancer Treatments Comprising Elsamitrucin and Other Agents” (priority 2007, published 2008)
Where “and” joins values, the source holds several entries; their conditions need not be identical. Identical values can stand only once. Like-named read-outs stand apart in the source and are kept apart here.

Experiments:
[1] = tested on: SKMES human non-small cell lung carcinoma cell line; experiment: MTT growth inhibition assay, single agents and fixed-ratio combinations with elsamitrucin (Chou-Talalay, CalcuSyn), SKMES; assay type: cell-based
Procedure: (§1) These individual agents and their combinations were evaluated for in vitro activity against the HT29 colon carcinoma, SKMES non-small cell lung carcinoma, and Daudi B-lymphoblastic cell lines. Cell growth in 96-well microculture plates was determined with a semi-automated MTT assay. Efficacies of drug combinations were analyzed according to the methods of Chou and Talalay, utilizing CalcuSyn software. Twenty-one in vitro experiments were conducted to determine the individual and combined growth inhibitory activities of elsamitrucin and the ten selected agents in the three cell lines.
(§2) b. Cell Lines. The human HT29 colon carcinoma, SKMES non-small cell lung carcinoma, and Daudi B-lymphoblastic cell lines were originally obtained from ATCC (American Type Culture Collection). These cell lines have been maintained and stored as frozen stocks. […] The medium for Daudi cells was additionally supplemented with 1 mM sodium pyruvate.
(§3) c. Growth Inhibition Assay. Anti-proliferative activities against the HT29, SKMES, and Daudi cell lines were evaluated in vitro by the MTT assay. Cells (1,500-2,000 cells/well) were seeded in a 96-well microculture plate in 180 pL of medium/well. […] DMSO was present in all wells at a final concentration of 0.1%. […] When the appropriate cell density was attained in the control wells, the plates were centrifuged briefly, and 100 pL of the growth medium was removed. The cell cultures were incubated with 50 μL of MTT reagent (1 mg/mL in Dulbecco's phosphate-buffered saline) for 4 hr at 37° C. The resultant purple formazan precipitate was solubilized with 200 μL of 0.04 N HCl in isopropanol.
(§4) The results of each experiment were stored in Excel format.
(§5) d. Preliminary Experiments: Design and Data Analysis. […] The initial experiments utilized serial three-fold dilutions of the drugs to produce ten test concentrations over a broad concentration range. Based on the initial results, a narrower concentration range was selected, and serial 1:1.5 dilutions were utilized to produce ten test concentrations. Experiments were repeated as needed.
(§6) For assays that utilized lower dilution factors to produce narrower concentration ranges, the results were analyzed with both Prism and CalcuSyn (as described below) to allow comparison of the IC50 and Da, values. The results guided the selection of appropriate concentration ranges and concentration ratios for the combination experiments.
(§7) e. Combination Experiments: Design and Data Analysis. The fixed-ratio design of Chou was used for the combination experiments. For each experiment, the drug solutions were mixed at a ratio that was expected to provide approximately equipotent concentrations, and the mixture was serially diluted with medium containing 1% DMSO to yield 10× stock solutions of the test concentrations. […] Each agent was tested individually and in combination at seven concentrations. The concentration range selected for each assay was designed to bracket the concentrations that produced half-maximal effects (ED50) with each single agent and their mixture. The concentrations used for the single-drug assays were twice as high as their concentrations in the mixture. Each assay was performed in quadruplicate. For each drug combination, the individual agents and their mixture were assayed on the same 96-well plate. The effects of the individual drugs and their combinations were analyzed by the method of Chou and Talalay. The results of each experiment were entered into CalcuSyn (BIOSOFT) for dose-effect analysis.
(§8) where Acontrol and Adrug are the respective absorbances of vehicle control and drug-treated wells in the MIT assay.
(§9) where the slope, m, is related to the sigmoidicity of the dose-effect curve, with m=1, >1, and <1 indicating hyperbolic, sigmoidal, and reverse sigmoidal shapes, respectively.

[2] = tested on: Daudi human lymphoma cell line; experiment: MTT growth inhibition assay, single agents and fixed-ratio combinations with elsamitrucin (Chou-Talalay, CalcuSyn), Daudi; assay type: cell-based
Procedure: as §1, §2, §3, §4, §5, §6, §7, §8, §9

[3] = Homo sapiens, SPA-02 (SKMES-e22), single agent, dilution 1:3, read-out: Prism IC50
[4] = Homo sapiens, SPA-03 (SKMES-e23), single agent, dilution 1:1.5, read-out: CalcuSyn Dm
[5] = Homo sapiens, SPA-03 (SKMES-e23), single agent, dilution 1:1.5, read-out: Prism IC50
[6] = Homo sapiens, average of preliminary single-agent experiments, SKMES, read-out: Average IC50, Dm value
[7] = Homo sapiens, Daudi, SPA-05 (Daudi-e01), single agent, dilution 1:3, read-out: Prism IC50
[8] = Homo sapiens, Daudi, average of preliminary single-agent experiments, Daudi, read-out: Average IC50, Dm value

N.N.[Cl][Pt][Cl] [Cisplatin, cisplatin]
IC50 ([1]; SKMES growth inhibition, second agent alone, one value per plate (Experiment ID), read-out: Dm Value (95% Confidence Interval), Individually, Second Agent): 1670 nM | decrease of Dm in the combination ([1]; SKMES, in combination with elsamitrucin versus single agent): 47% | IC50 ([1]; SKMES, single agent on the same plate as the combination, read-out: Dm Value, Individually, Second Agent): 1670 nM | IC50 ([1]; SPA-02 (SKMES-e22), single agent, dilution 1:3, read-out: Prism IC50): 675 nM | IC50 ([1]; SPA-03 (SKMES-e23), single agent, dilution 1:1.5, read-out: CalcuSyn Dm): 1180 nM | IC50 ([1]; SPA-03 (SKMES-e23), single agent, dilution 1:1.5, read-out: Prism IC50): 1140 nM | IC50 ([1]; average of preliminary single-agent experiments, SKMES, read-out: Average IC50, Dm value): 1000 nM | IC50 ([2]; Daudi growth inhibition, second agent alone, one value per plate, Table 8 (Supplement), read-out: Dm Value (95% Confidence Interval), Individually, Second Agent): 494 nM | IC50 ([2]; Daudi growth inhibition, second agent alone, Table 8, read-out: Dm Value (95% Confidence Interval), Individually, Second Agent): 494 nM | decrease of Dm in the combination ([2]; Daudi, in combination with elsamitrucin versus single agent): 59% | IC50 ([2]; Daudi, read-out: approximate Dm values for the second drugs as single agents): ~490 nM | IC50 ([2]; SPA-05 (Daudi-e01), single agent, dilution 1:3, read-out: Prism IC50): 367 nM | IC50 ([2]; SPA-08 (Daudi-e02), single agent, dilution 1:1.5, read-out: CalcuSyn Dm): 343 nM | IC50 ([2]; SPA-08 (Daudi-e02), single agent, dilution 1:1.5, read-out: Prism IC50): 344 nM | IC50 ([2]; average of preliminary single-agent experiments, Daudi, read-out: Average IC50, Dm value): 351 nM

CO[C@@H]1[C@@H](N)[C@@H](O[C@H]2[C@H](Oc3cccc4c(O)c5c(=O)oc6ccc(C)c7c(=O)oc(c34)c5c67)O[C@H](C)[C@H](O)[C@]2(C)O)O[C@H](C)[C@@H]1O [Elsamitrucin, benzo(h)(1)benzopyrano(5,4,3-cde)(1)ebnzopyran-5,12-dione,10((2-O-(2-amino-2,6-dideoxy-3-O-methyl-alpha-D-galactopyranosyl)-6-deoxy-3-C-methyl-beta-D-galactopyranosyl)oxy)-6-hydroxy-1-methyl]
IC50 ([1]; Homo sapiens, SKMES cells, single agent, read-out: average Dm): 22 nM | IC50 ([1]; Homo sapiens, SKMES, single agent, ten assays of Table 5, read-out: average Dm): 22 nM | IC50 ([1]; Homo sapiens, SKMES, single agent, ten assays of Table 5, read-out: range of Dm): 11 to 53 nM | IC50 [1, 3]: 12 nM | IC50 [1, 4]: 25.6 nM | IC50 [1, 5]: 24.4 nM | IC50 [1, 6]: 21 nM | IC50 ([2]; Daudi growth inhibition, elsamitrucin alone, one value per plate, Table 8 (Supplement), read-out: Dm Value (95% Confidence Interval), Individually, Elsamitrucin): 23 nM and 30 nM and 28 nM and 15 nM and 13 nM and 34 nM and 26 nM | IC50 ([2]; Daudi growth inhibition, elsamitrucin alone, one value per plate, Table 8, read-out: Dm Value (95% Confidence Interval), Individually, Elsamitrucin): 30 nM and 28 nM and 13 nM and 34 nM and 26 nM and 23 nM | IC50 [2, 7]: 12 nM | IC50 ([2]; Homo sapiens, Daudi, SPA-15 (Daudi-e03), single agent, dilution 1:1.5 (elsamitrucin 1:1.33), read-out: CalcuSyn Dm): 46 nM | IC50 ([2]; Homo sapiens, Daudi, SPA-15 (Daudi-e03), single agent, dilution 1:1.5 (elsamitrucin 1:1.33), read-out: Prism IC50): 40 nM | IC50 [2, 8]: 33 nM | IC50 ([2]; Homo sapiens, Daudi, single agent, ten assays of Table 8, read-out: average Dm): 27 nM | IC50 ([2]; Homo sapiens, Daudi, single agent, ten assays of Table 8, read-out: range of Dm): 13 to 34 nM

CC(=O)O[C@H]1C(=O)[C@@]2(C)[C@H]([C@H](OC(=O)c3ccccc3)[C@]3(O)C[C@H](OC(=O)[C@H](O)[C@@H](NC(=O)c4ccccc4)c4ccccc4)C(C)=C1C3(C)C)[C@]1(OC(C)=O)CO[C@@H]1C[C@@H]2O [Paclitaxel, paclitaxel]
IC50 ([1]; Homo sapiens, SKMES growth inhibition, second agent alone, one value per plate (Experiment ID), read-out: Dm Value (95% Confidence Interval), Individually, Second Agent): 3.5 nM | IC50 ([1]; Homo sapiens, SKMES, single agent on the same plate as the combination, read-out: Dm Value, Individually, Second Agent): 3.5 nM | IC50 [1, 3]: 1.1 nM | IC50 [1, 4]: 2.8 nM | IC50 [1, 5]: 2.6 nM | IC50 [1, 6]: 2 nM | IC50 ([2]; Homo sapiens, Daudi, Daudi growth inhibition, second agent alone, one value per plate, Table 8 (Supplement), read-out: Dm Value (95% Confidence Interval), Individually, Second Agent): 4 nM | IC50 ([2]; Homo sapiens, Daudi, Daudi growth inhibition, second agent alone, Table 8, read-out: Dm Value (95% Confidence Interval), Individually, Second Agent): 4 nM | IC50 [2, 7]: 3.6 nM | IC50 ([2]; Homo sapiens, Daudi, SPA-08 (Daudi-e02), single agent, dilution 1:1.5, read-out: CalcuSyn Dm): 4.1 nM | IC50 ([2]; Homo sapiens, Daudi, SPA-08 (Daudi-e02), single agent, dilution 1:1.5, read-out: Prism IC50): 3.3 nM | IC50 [2, 8]: 4 nM | IC50 ([2]; Homo sapiens, Daudi, read-out: approximate Dm values for the second drugs as single agents): ~4 nM
